In ChEMBL document CHEMBL4321854, “Discovery of a First-in-Class Mitogen-Activated Protein Kinase Kinase 1/2 Degrader” (J Med Chem, 2019):
Calls of active or inactive are those of the source. No cut-off for these calls is given here.

What was measured:
[1] = target: Dual specificity mitogen-activated protein kinase kinase 1 (Homo sapiens, UniProt Q02750); experiment: Inhibition of recombinant full length human His-tagged MEK1 expressed in baculovirus expression system using ERK K52R dead variant as substrate preincubated for 20 mins followed by incubation with 33P-ATP addition for 2 hrs by hotspot kinase assay
[2] = target: Dual specificity mitogen-activated protein kinase kinase 2 (Homo sapiens, UniProt P36507); experiment: Inhibition of recombinant full length human His-tagged MEK2 expressed in baculovirus expression system using ERK K52R dead variant as substrate preincubated for 20 mins followed by incubation with 33P-ATP for 2 hrs by hotspot kinase assay
[3] = target: T1, von Hippel-Lindau disease tumor suppressor/Dual specificity mitogen-activated protein kinase kinase 2 (Homo sapiens) (UniProt P36507+P40337); experiment: Protac activity against VHL/MEK2 in human HT-29 cells harboring with BRAF V600E variant assessed as degradation of MEK2 by measuring MEK2 protein level up to 1 uM after 24 hrs by Western blot analysis; format: cell-based
[4] = target: T1, von Hippel-Lindau disease tumor suppressor/Dual specificity mitogen-activated protein kinase kinase 2 (Homo sapiens); experiment: Protac activity against VHL/MEK2 in human SK-MEL-28 cells harboring with BRAF V600E variant assessed as degradation of MEK2 by measuring MEK2 protein level up to 1 uM after 24 hrs by Western blot analysis; format: cell-based
[5] = target: T2, von Hippel-Lindau disease tumor suppressor/Dual specificity mitogen-activated protein kinase kinase 1 (Homo sapiens) (UniProt Q02750+P40337); experiment: Protac activity against VHL/MEK1 in human HT-29 cells harboring with BRAF V600E variant assessed as degradation of MEK1 by measuring reduction in MEK1 protein level at 0.1 uM after 10 hrs by LC-MS based Volcano plot analysis; format: cell-based
[6] = target: T1, von Hippel-Lindau disease tumor suppressor/Dual specificity mitogen-activated protein kinase kinase 2 (Homo sapiens); experiment: Protac activity against VHL/MEK2 in human HT-29 cells harboring with BRAF V600E variant assessed as degradation of MEK2 by measuring reduction in MEK2 protein level at 0.1 uM after 10 hrs by LC-MS based Volcano plot analysis; format: cell-based
[7] = test system: HT-29; experiment: Antiproliferative activity against human HT-29 cells assessed as reduction in cell growth after 3 days by MTT assay; format: functional
[8] = test system: SK-MEL-28; experiment: Antiproliferative activity against human SK-MEL-28 cells assessed as reduction in cell growth after 3 days by MTT assay; format: functional
[9] = test system: COLO 205; experiment: Antiproliferative activity against human COLO205 cells assessed as reduction in cell growth after 3 days by WST8 assay; format: functional
[10] = test system: UACC-257; experiment: Antiproliferative activity against human UACC257 cells assessed as reduction in cell growth after 3 days by MTT assay; format: functional
[11] = test system: HT-29; experiment: Inhibition of colony formation in human HT-29 cells at 10 to 100 nM supplemented with fresh medium containing compound every 3 days for 14 days by crystal violet staining based assay; format: functional, cell-based
[12] = test system: SK-MEL-28; experiment: Inhibition of colony formation in human SK-MEL-28 cells at 10 to 100 nM supplemented with fresh medium containing compound every 3 days for 14 days by crystal violet staining based assay; format: functional, cell-based
[13] = target: Protein cereblon/Dual specificity mitogen-activated protein kinase kinase 1 (Homo sapiens) (UniProt Q02750+Q96SW2); experiment: Protac activity against CRBN/MEK1 in human HT-29 cells harboring BRAF V600E variant assessed as degradation of MEK1 at 0.3 to 3 uM after 24 hrs by Western blot analysis; format: cell-based
[14] = target: Protein cereblon/Dual specificity mitogen-activated protein kinase kinase 2 (Homo sapiens) (UniProt P36507+Q96SW2); experiment: Protac activity against CRBN/MEK2 in human HT-29 cells harboring BRAF V600E variant assessed as degradation of MEK2 at 0.3 to 3 uM after 24 hrs by Western blot analysis; format: cell-based
[15] = target: T2, von Hippel-Lindau disease tumor suppressor/Dual specificity mitogen-activated protein kinase kinase 1 (Homo sapiens); experiment: Protac activity against VHL/MEK1 in human HT-29 cells harboring BRAF V600E variant assessed as degradation of MEK1 at 0.3 to 3 uM after 24 hrs by Western blot analysis; format: cell-based
[16] = target: T1, von Hippel-Lindau disease tumor suppressor/Dual specificity mitogen-activated protein kinase kinase 2 (Homo sapiens); experiment: Protac activity against VHL/MEK2 in human HT-29 cells harboring BRAF V600E variant assessed as degradation of MEK2 at 0.3 to 3 uM after 24 hrs by Western blot analysis; format: cell-based

T2 sequence (P40337 whole entry, looked up): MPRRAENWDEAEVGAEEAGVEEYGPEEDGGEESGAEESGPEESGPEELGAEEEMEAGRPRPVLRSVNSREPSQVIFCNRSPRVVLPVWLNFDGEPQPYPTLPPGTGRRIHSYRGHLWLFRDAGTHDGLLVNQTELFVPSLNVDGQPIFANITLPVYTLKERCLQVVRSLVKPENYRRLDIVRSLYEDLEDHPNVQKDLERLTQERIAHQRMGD
T2 sequence (Q02750 whole entry, looked up): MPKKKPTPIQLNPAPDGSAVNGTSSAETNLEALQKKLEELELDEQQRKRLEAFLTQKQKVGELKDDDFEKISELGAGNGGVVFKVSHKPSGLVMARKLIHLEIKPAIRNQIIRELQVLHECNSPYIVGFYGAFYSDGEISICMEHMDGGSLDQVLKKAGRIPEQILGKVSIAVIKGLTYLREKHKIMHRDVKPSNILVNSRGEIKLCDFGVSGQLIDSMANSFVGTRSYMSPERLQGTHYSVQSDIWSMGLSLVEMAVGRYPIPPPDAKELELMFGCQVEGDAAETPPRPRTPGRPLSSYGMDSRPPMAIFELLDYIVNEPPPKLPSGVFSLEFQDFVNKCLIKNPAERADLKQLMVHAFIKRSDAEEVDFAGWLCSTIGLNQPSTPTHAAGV
T1 sequence (P36507 whole entry, looked up): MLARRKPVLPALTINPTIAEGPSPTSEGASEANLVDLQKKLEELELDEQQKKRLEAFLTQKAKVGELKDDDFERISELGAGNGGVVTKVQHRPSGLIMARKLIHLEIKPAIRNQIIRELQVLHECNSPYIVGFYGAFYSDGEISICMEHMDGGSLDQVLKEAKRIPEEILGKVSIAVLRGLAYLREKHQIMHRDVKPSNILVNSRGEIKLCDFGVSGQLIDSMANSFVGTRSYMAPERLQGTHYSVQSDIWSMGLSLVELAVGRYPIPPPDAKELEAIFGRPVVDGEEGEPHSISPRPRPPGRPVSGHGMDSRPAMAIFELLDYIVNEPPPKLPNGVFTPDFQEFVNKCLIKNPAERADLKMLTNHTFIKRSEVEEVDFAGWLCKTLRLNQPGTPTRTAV
T1 sequence (P40337 whole entry, looked up): as the sequence (P40337 whole entry, looked up) above
Protein cereblon/Dual specificity mitogen-activated protein kinase kinase 2 (Homo sapiens), sequence (P36507 whole entry, looked up): as the sequence (P36507 whole entry, looked up) above
Protein cereblon/Dual specificity mitogen-activated protein kinase kinase 2 (Homo sapiens), sequence (Q96SW2 whole entry, looked up): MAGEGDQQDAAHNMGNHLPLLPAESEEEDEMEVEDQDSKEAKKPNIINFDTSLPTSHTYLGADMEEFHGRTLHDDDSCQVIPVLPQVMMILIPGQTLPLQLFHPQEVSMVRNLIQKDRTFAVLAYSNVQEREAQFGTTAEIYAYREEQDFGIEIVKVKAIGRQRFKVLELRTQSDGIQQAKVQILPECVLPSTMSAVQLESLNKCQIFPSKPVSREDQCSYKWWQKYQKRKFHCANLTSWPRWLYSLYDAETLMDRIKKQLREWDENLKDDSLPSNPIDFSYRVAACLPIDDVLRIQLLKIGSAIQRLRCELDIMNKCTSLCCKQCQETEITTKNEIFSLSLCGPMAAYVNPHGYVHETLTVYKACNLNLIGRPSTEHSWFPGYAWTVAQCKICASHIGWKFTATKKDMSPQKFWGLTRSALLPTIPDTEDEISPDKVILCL
Protein cereblon/Dual specificity mitogen-activated protein kinase kinase 1 (Homo sapiens), sequence (Q02750 whole entry, looked up): as the sequence (Q02750 whole entry, looked up) above
Protein cereblon/Dual specificity mitogen-activated protein kinase kinase 1 (Homo sapiens), sequence (Q96SW2 whole entry, looked up): as the sequence (Q96SW2 whole entry, looked up) above
Dual specificity mitogen-activated protein kinase kinase 2, sequence (P36507 whole entry): as the sequence (P36507 whole entry, looked up) above
Dual specificity mitogen-activated protein kinase kinase 1, sequence (Q02750 whole entry): as the sequence (Q02750 whole entry, looked up) above

Cc1ncsc1-c1ccc([C@H](C)NC(=O)[C@H]2C[C@H](O)CN2C(=O)[C@@H](NC(=O)CCCCCCCCCCNCCCONC(=O)c2ccc(F)c(F)c2Nc2ccc(I)cc2F)C(C)(C)C)cc1
IC50 [1]: 1600 nM
IC50 [2]: 1500 nM
Activity [3]: inactive
Activity [4]: inactive
Activity [5]: inactive
Activity [6]: inactive
GI50 [7]: inactive
GI50 [8]: inactive
GI50 [9]: inactive
GI50 [10]: inactive
inhibition [11]: inactive
inhibition [12]: inactive

O=C1CCC(N2C(=O)c3cccc(NCCNCCCONC(=O)c4ccc(F)c(F)c4Nc4ccc(I)cc4F)c3C2=O)C(=O)N1 (stereo not given)
Activity [13]: inactive
Activity [14]: inactive

Cc1ncsc1-c1ccc(CNC(=O)[C@@H]2C[C@@H](O)CN2C(=O)[C@@H](NC(=O)CCCCCCNCCCONC(=O)c2ccc(F)c(F)c2Nc2ccc(I)cc2F)C(C)(C)C)cc1
Activity [15]: Active
Activity [16]: Active

O=C1CCC(N2C(=O)c3cccc(NCCOCCNCCCONC(=O)c4ccc(F)c(F)c4Nc4ccc(I)cc4F)c3C2=O)C(=O)N1 (stereo not given)
Activity [13]: inactive
Activity [14]: inactive

Cc1ncsc1-c1ccc(CNC(=O)[C@@H]2C[C@@H](O)CN2C(=O)[C@@H](NC(=O)COCCOCCOCCNCCCONC(=O)c2ccc(F)c(F)c2Nc2ccc(I)cc2F)C(C)(C)C)cc1
Activity [15]: Active
Activity [16]: Active

Cc1ncsc1-c1ccc(CNC(=O)[C@@H]2C[C@@H](O)CN2C(=O)[C@@H](NC(=O)CCCCCCCCCCNCCCONC(=O)c2ccc(F)c(F)c2Nc2ccc(I)cc2F)C(C)(C)C)cc1
Activity [15]: Active
Activity [16]: Active

O=C(NOC[C@H](O)CO)c1ccc(F)c(F)c1Nc1ccc(I)cc1F [MIRDAMETINIB]
Activity [3]: inactive
Activity [4]: inactive
GI50 ([7]; HT-29, 72 h): 3.1 nM
GI50 ([8]; SK-MEL-28, 72 h): 2.9 nM
GI50 ([9]; COLO 205, 72 h): 0.2 to 4.2 nM
GI50 ([10]; UACC-257, 72 h): 0.2 to 4.2 nM
inhibition [11]: Active
inhibition [12]: Active
